Data reported in US20140314757A1, “PHYTOCANNABINOIDS FOR USE IN THE TREATMENT OF BREAST CANCER” (priority 2011, published 2014).

How the values were obtained:
[1] = system: MDA-MB-231 cells stably overexpressing Her2 (231-Her2); assay: MTT cell viability, 231-Her2 cells; format: cell-based, human; conditions: 48 h (FIGS. 13 and 14)
Experimental: (§1) Cells were incubated in the presence of cannabinoids for 48 h and cell viability was assessed by the MTT colorimetric test.

[2] = system: 231-Met (highly metastatic 231-Her2-derived cell line); assay: MTT cell viability, highly metastatic 231-Her2 cells; format: cell-based, human; conditions: for cell viability, increasing concentrations: 72 h (FIG. 9); for IC50 values, cell viability: 72 h, THC compared with CBD (FIG. 9)
Experimental: The effect of THC and CBD on the viability of a series of Her2-positive human breast cancer cell lines: MDA-MB-231 cells that ectopically overexpress Her2 (231-Her2), a highly metastatic version of 231-Her2 (231-Met), and three different trastuzumab-resistant 231-Her2-derived cell lines (TrR1, TrR2 and TrR3).
Cells were incubated in DMEM supplemented with 10% foetal bovine serum. After 12 hours of serum starvation, cells were challenged with different concentrations of THC or CBD (or the corresponding vehicle, DMSO) for 72 h. Cell viability was then determined by the colorimetric MTT test.
as §1

[3] = system: MDA-MB-231 cells; assay: MTT cell viability, MDA-MB-231 cells; format: cell-based, human; conditions: 48 h (FIG. 11)
Experimental: as §1

[4] = system: SkBr3 cells; assay: MTT cell viability, SkBr3 cells; format: cell-based, human; conditions: for cell viability, increasing concentrations: 72 h, concentration-related (FIG. 2)
Experimental: (§2) The effect of THC and CBD, alone and in combination, on the viability of two different Her2-positive human breast cancer cell lines: SkBr3 and BT474 were tested.
(§3) Briefly, cells were incubated in RPMI (SkBr3) or DMEM (BT474) supplemented with 10% foetal bovine serum. After 12 hours of serum starvation, the cells were challenged with different concentrations of THC or CBD (or the corresponding vehicle, DMSO) for 72 h. Cell viability was then determined by the colorimetric MTT test.

[5] = system: BT474 cells; assay: MTT cell viability, BT474 cells; format: cell-based, human; conditions: for cell viability, increasing concentrations: 72 h, concentration-related (FIG. 2); for cell viability at low concentrations: <1 μM, alone or 1:1 combination, 72 h (FIG. 3)
Experimental: as §2, §3
The analysis of the combined drug effect was performed with the CalcuSyn v2.0 software. To determine whether the combination of THC and CBD was additive or synergistic, we calculated different combination indexes (Cis) using the algorithm by Chou and Talalay with the CalcuSyn v2.0 software.
For each ED, the software (i) plots a line connecting the concentrations of THC and CBD that produce that particular effect when administered as single agents, and (ii) generates a point that indicates the concentration of THC and CBD, applied as a combination, required to produce such effect. If the line is straight, this means that the two compounds are producing a simple additive effect and the point should appear within it.
The effect of THC and CBD, alone and in combination at different ratios, on the viability of BT474 cells was examined.
Cells were incubated in DMEM supplemented with 10% foetal bovine serum. After 12 hours of serum starvation, cells were challenged for 72 h as described in Table 3.1. Cell viability was then determined by the colorimetric MTT test.

[6] = system: id-1 gene expression; conditions: MDA-MB231 and MDA-MB436 cell lines; cited from earlier work

| Molecule | cell viability, single agents, increasing concentrations [1] | cell viability, increasing concentrations [2] | IC50 values, cell viability [2] | cell viability, single agents [3] | cell viability upon exposure to THC ([4]; 3 μM THC, 72 h (FIG. 1C)) | cell viability, increasing concentrations [4] | cell viability upon exposure to THC ([5]; 6 μM THC, 72 h (FIG. 1C)) | cell viability, increasing concentrations [5] | cell viability at low concentrations [5] | effect of CB2 antagonist on THC-induced decrease of viability ([4]; 3 μM THC with 2 μM SR144528, 72 h (FIG. 1C)) | effect of CB2 antagonist on THC-induced decrease of viability ([5]; 6 μM THC with 2 μM SR144528, 72 h (FIG. 1C)) | id-1 gene expression [6] |
| --- | --- | --- | --- | --- | --- | --- | --- | --- | --- | --- | --- | --- |
| CCCCCc1cc(O)c2c(c1)OC(C)(C)[C@@H]1CCC(C)=C[C@@H]21 [THC, tetrahydrocannabinol] | decreases | decreased its viability | virtually identical | sensitive | decreases | reduced their viability | decreases | reduced their viability | no effect on cell viability |  |  |  |
| SR144528 |  |  |  |  |  |  |  |  |  | prevented | prevented |  |
| C=C(C)[C@@H]1CCC(C)=C[C@H]1c1c(O)cc(CCCCC)cc1O [CBD, cannabidiol] | decreases | decreased its viability | virtually identical | sensitive |  | reduced their viability |  | reduced their viability | no effect on cell viability |  |  | inhibit |
